In ChEMBL document CHEMBL6121016, “Design, Synthesis, and Biological Evaluation of 1,3,4-Thiadiazole Derivatives as Novel Potent Peptide Deformylase Inhibitors for Combating Drug-Resistant Gram-Positive and -Negative Bacteria” (J Med Chem, 2025):
Converted amounts (≈) assume the structure as drawn.

test system: Staphylococcus aureus; assay: Antibacterial activity against methicillin-resistant Staphylococcus aureus ATCC 33591 after 16 to 18 hrs by broth microdilution method; type: functional; details: time 16-18 hrs

Row | Structure (SMILES) | MIC [µg/mL]
1 | CCCC[C@H](CN(O)C=O)C(=O)N1CCC[C@H]1c1nnc(C2CC2)s1 | 1 (≈ 2.73 µM)
2 | CCCC[C@H](CN(O)C=O)C(=O)N1CCC[C@H]1c1nnc(-c2ccc[nH]2)s1 | 0.25 (≈ 0.639 µM)
3 | CCCC[C@H](CN(O)C=O)C(=O)N1CCC[C@H]1c1nnc(-c2ccc(Br)cc2)s1 | 0.5 (≈ 1.04 µM)
4 | CCCC[C@H](CN(O)C=O)C(=O)N1CCC[C@H]1c1nnc(-c2ccc(F)cc2C(F)(F)F)s1 | 0.5 (≈ 1.02 µM)
5 | CCCC[C@H](CN(O)C=O)C(=O)N1CCC[C@H]1c1nnc(-c2ccc(-c3ccccc3)cc2)s1 | 1 (≈ 2.09 µM)
6 | CCCC[C@H](CN(O)C=O)C(=O)N1CCC[C@H]1c1nnc(-c2ccc(C#N)cc2F)s1 | 0.125 (≈ 0.281 µM)

test system: Staphylococcus aureus; assay: Antibacterial activity against methicillin-susceptible Staphylococcus aureus ATCC 25923 after 16 to 18 hrs by broth microdilution method; type: functional; details: time 16-18 hrs

Row | Structure (SMILES) | MIC [µg/mL]
7 | CCCC[C@H](CN(O)C=O)C(=O)N1CCC[C@H]1c1nnc(C2CC2)s1 | 2 (≈ 5.46 µM)
8 | CCCC[C@H](CN(O)C=O)C(=O)N1CCC[C@H]1c1nnc(-c2ccc[nH]2)s1 | 1 (≈ 2.55 µM)
9 | CCCC[C@H](CN(O)C=O)C(=O)N1CCC[C@H]1c1nnc(-c2ccc(Br)cc2)s1 | 0.5 (≈ 1.04 µM)
10 | CCCC[C@H](CN(O)C=O)C(=O)N1CCC[C@H]1c1nnc(-c2ccc(F)cc2C(F)(F)F)s1 | 2 (≈ 4.09 µM)
11 | CCCC[C@H](CN(O)C=O)C(=O)N1CCC[C@H]1c1nnc(-c2ccc(-c3ccccc3)cc2)s1 | 2 (≈ 4.18 µM)
12 | CCCC[C@H](CN(O)C=O)C(=O)N1CCC[C@H]1c1nnc(-c2ccc(C#N)cc2F)s1 | 0.125 (≈ 0.281 µM)

test system: Staphylococcus aureus; assay: Antibacterial activity against methicillin-susceptible Staphylococcus aureus ATCC 13709 after 16 to 18 hrs by broth microdilution method; type: functional; details: time 16-18 hrs

Row | Structure (SMILES) | MIC [µg/mL]
13 | CCCC[C@H](CN(O)C=O)C(=O)N1CCC[C@H]1c1nnc(C2CC2)s1 | 2 (≈ 5.46 µM)
14 | CCCC[C@H](CN(O)C=O)C(=O)N1CCC[C@H]1c1nnc(-c2ccc[nH]2)s1 | 1 (≈ 2.55 µM)
15 | CCCC[C@H](CN(O)C=O)C(=O)N1CCC[C@H]1c1nnc(-c2ccc(Br)cc2)s1 | 0.5 (≈ 1.04 µM)
16 | CCCC[C@H](CN(O)C=O)C(=O)N1CCC[C@H]1c1nnc(-c2ccc(F)cc2C(F)(F)F)s1 | 2 (≈ 4.09 µM)
17 | CCCC[C@H](CN(O)C=O)C(=O)N1CCC[C@H]1c1nnc(-c2ccc(-c3ccccc3)cc2)s1 | 2 (≈ 4.18 µM)
18 | CCCC[C@H](CN(O)C=O)C(=O)N1CCC[C@H]1c1nnc(-c2ccc(C#N)cc2F)s1 | 0.125 (≈ 0.281 µM)

test system: Staphylococcus epidermidis; assay: Antibacterial activity against Staphylococcus epidermidis after 16 to 18 hrs by broth microdilution method; type: functional; details: time 16-18 hrs

Row | Structure (SMILES) | MIC [µg/mL]
19 | CCCC[C@H](CN(O)C=O)C(=O)N1CCC[C@H]1c1nnc(C2CC2)s1 | 0.5 (≈ 1.36 µM)
20 | CCCC[C@H](CN(O)C=O)C(=O)N1CCC[C@H]1c1nnc(-c2ccc[nH]2)s1 | 0.5 (≈ 1.28 µM)
21 | CCCC[C@H](CN(O)C=O)C(=O)N1CCC[C@H]1c1nnc(-c2ccc(Br)cc2)s1 | 1 (≈ 2.08 µM)
22 | CCCC[C@H](CN(O)C=O)C(=O)N1CCC[C@H]1c1nnc(-c2ccc(F)cc2C(F)(F)F)s1 | 4 (≈ 8.19 µM)
23 | CCCC[C@H](CN(O)C=O)C(=O)N1CCC[C@H]1c1nnc(-c2ccc(-c3ccccc3)cc2)s1 | > 16
24 | CCCC[C@H](CN(O)C=O)C(=O)N1CCC[C@H]1c1nnc(-c2ccc(C#N)cc2F)s1 | 2 (≈ 4.49 µM)

test system: Escherichia coli; assay: Antibacterial activity against Escherichia coli ATCC 25922 after 16 to 18 hrs by broth microdilution method; type: functional; details: time 16-18 hrs

Row | Structure (SMILES) | MIC [µg/mL]
25 | CCCC[C@H](CN(O)C=O)C(=O)N1CCC[C@H]1c1nnc(C2CC2)s1 | > 16
26 | CCCC[C@H](CN(O)C=O)C(=O)N1CCC[C@H]1c1nnc(-c2ccc[nH]2)s1 | > 16
27 | CCCC[C@H](CN(O)C=O)C(=O)N1CCC[C@H]1c1nnc(-c2ccc(Br)cc2)s1 | > 16
28 | CCCC[C@H](CN(O)C=O)C(=O)N1CCC[C@H]1c1nnc(-c2ccc(F)cc2C(F)(F)F)s1 | > 16
29 | CCCC[C@H](CN(O)C=O)C(=O)N1CCC[C@H]1c1nnc(-c2ccc(-c3ccccc3)cc2)s1 | > 16
30 | CCCC[C@H](CN(O)C=O)C(=O)N1CCC[C@H]1c1nnc(-c2ccc(C#N)cc2F)s1 | 8 (≈ 18 µM)

test system: Acinetobacter baumannii; assay: Antibacterial activity against Acinetobacter baumannii Bio 34235 after 16 to 18 hrs by broth microdilution method; type: functional; details: time 16-18 hrs

Row | Structure (SMILES) | MIC [µg/mL]
31 | CCCC[C@H](CN(O)C=O)C(=O)N1CCC[C@H]1c1nnc(C2CC2)s1 | > 16
32 | CCCC[C@H](CN(O)C=O)C(=O)N1CCC[C@H]1c1nnc(-c2ccc[nH]2)s1 | > 16
33 | CCCC[C@H](CN(O)C=O)C(=O)N1CCC[C@H]1c1nnc(-c2ccc(Br)cc2)s1 | > 16
34 | CCCC[C@H](CN(O)C=O)C(=O)N1CCC[C@H]1c1nnc(-c2ccc(F)cc2C(F)(F)F)s1 | > 16
35 | CCCC[C@H](CN(O)C=O)C(=O)N1CCC[C@H]1c1nnc(-c2ccc(-c3ccccc3)cc2)s1 | > 16
36 | CCCC[C@H](CN(O)C=O)C(=O)N1CCC[C@H]1c1nnc(-c2ccc(C#N)cc2F)s1 | > 16

test system: Staphylococcus aureus; assay: Antibacterial activity against methicillin-susceptible Staphylococcus aureus ATCC 29213 after 16 to 18 hrs by broth microdilution method; type: functional; details: time 16-18 hrs

Row | Structure (SMILES) | MIC [µg/mL]
37 | CCCC[C@H](CN(O)C=O)C(=O)N1CCC[C@H]1c1nnc(C2CC2)s1 | 4 (≈ 10.9 µM)
38 | CCCC[C@H](CN(O)C=O)C(=O)N1CCC[C@H]1c1nnc(-c2ccc[nH]2)s1 | 1 (≈ 2.55 µM)
39 | CCCC[C@H](CN(O)C=O)C(=O)N1CCC[C@H]1c1nnc(-c2ccc(Br)cc2)s1 | 1 (≈ 2.08 µM)
40 | CCCC[C@H](CN(O)C=O)C(=O)N1CCC[C@H]1c1nnc(-c2ccc(F)cc2C(F)(F)F)s1 | 2 (≈ 4.09 µM)
41 | CCCC[C@H](CN(O)C=O)C(=O)N1CCC[C@H]1c1nnc(-c2ccc(-c3ccccc3)cc2)s1 | 2 (≈ 4.18 µM)
42 | CCCC[C@H](CN(O)C=O)C(=O)N1CCC[C@H]1c1nnc(-c2ccc(C#N)cc2F)s1 | 0.25 (≈ 0.561 µM)

test system: Staphylococcus aureus; assay: Antibacterial activity against methicillin-resistant Staphylococcus aureus ATCC 43300 after 16 to 18 hrs by broth microdilution method; type: functional; details: time 16-18 hrs

Row | Structure (SMILES) | MIC [µg/mL]
43 | CCCC[C@H](CN(O)C=O)C(=O)N1CCC[C@H]1c1nnc(C2CC2)s1 | 1 (≈ 2.73 µM)
44 | CCCC[C@H](CN(O)C=O)C(=O)N1CCC[C@H]1c1nnc(-c2ccc[nH]2)s1 | 0.5 (≈ 1.28 µM)
45 | CCCC[C@H](CN(O)C=O)C(=O)N1CCC[C@H]1c1nnc(-c2ccc(Br)cc2)s1 | 0.5 (≈ 1.04 µM)
46 | CCCC[C@H](CN(O)C=O)C(=O)N1CCC[C@H]1c1nnc(-c2ccc(F)cc2C(F)(F)F)s1 | 2 (≈ 4.09 µM)
47 | CCCC[C@H](CN(O)C=O)C(=O)N1CCC[C@H]1c1nnc(-c2ccc(-c3ccccc3)cc2)s1 | 1 (≈ 2.09 µM)
48 | CCCC[C@H](CN(O)C=O)C(=O)N1CCC[C@H]1c1nnc(-c2ccc(C#N)cc2F)s1 | 0.125 (≈ 0.281 µM)

test system: Klebsiella pneumoniae; assay: Antibacterial activity against Klebsiella pneumoniae CICC 21611 after 16 to 18 hrs by broth microdilution method; type: functional; details: time 16-18 hrs

Row | Structure (SMILES) | MIC [µg/mL]
49 | CCCC[C@H](CN(O)C=O)C(=O)N1CCC[C@H]1c1nnc(C2CC2)s1 | > 16
50 | CCCC[C@H](CN(O)C=O)C(=O)N1CCC[C@H]1c1nnc(-c2ccc[nH]2)s1 | > 16
51 | CCCC[C@H](CN(O)C=O)C(=O)N1CCC[C@H]1c1nnc(-c2ccc(Br)cc2)s1 | > 16
52 | CCCC[C@H](CN(O)C=O)C(=O)N1CCC[C@H]1c1nnc(-c2ccc(F)cc2C(F)(F)F)s1 | > 16
53 | CCCC[C@H](CN(O)C=O)C(=O)N1CCC[C@H]1c1nnc(-c2ccc(-c3ccccc3)cc2)s1 | > 16
54 | CCCC[C@H](CN(O)C=O)C(=O)N1CCC[C@H]1c1nnc(-c2ccc(C#N)cc2F)s1 | > 16

test system: Staphylococcus aureus; assay: Antibacterial activity against methicillin-resistant Staphylococcus aureus Bio-090770 after 16 to 18 hrs by broth microdilution method; type: functional; details: time 16-18 hrs

Row | Structure (SMILES) | MIC [µg/mL]
55 | CCCC[C@H](CN(O)C=O)C(=O)N1CCC[C@H]1c1nnc(C2CC2)s1 | 4 (≈ 10.9 µM)
56 | CCCC[C@H](CN(O)C=O)C(=O)N1CCC[C@H]1c1nnc(-c2ccc[nH]2)s1 | 4 (≈ 10.2 µM)
57 | CCCC[C@H](CN(O)C=O)C(=O)N1CCC[C@H]1c1nnc(-c2ccc(Br)cc2)s1 | 1 (≈ 2.08 µM)
58 | CCCC[C@H](CN(O)C=O)C(=O)N1CCC[C@H]1c1nnc(-c2ccc(F)cc2C(F)(F)F)s1 | 4 (≈ 8.19 µM)
59 | CCCC[C@H](CN(O)C=O)C(=O)N1CCC[C@H]1c1nnc(-c2ccc(-c3ccccc3)cc2)s1 | 2 (≈ 4.18 µM)
60 | CCCC[C@H](CN(O)C=O)C(=O)N1CCC[C@H]1c1nnc(-c2ccc(C#N)cc2F)s1 | 0.5 (≈ 1.12 µM)

test system: Acinetobacter baumannii; assay: Antibacterial activity against drug-resistant Acinetobacter baumannii Bio 53272 after 16 to 18 hrs by broth microdilution method; type: functional; details: time 16-18 hrs

Row | Structure (SMILES) | MIC [µg/mL]
61 | CCCC[C@H](CN(O)C=O)C(=O)N1CCC[C@H]1c1nnc(C2CC2)s1 | > 16
62 | CCCC[C@H](CN(O)C=O)C(=O)N1CCC[C@H]1c1nnc(-c2ccc[nH]2)s1 | > 16
63 | CCCC[C@H](CN(O)C=O)C(=O)N1CCC[C@H]1c1nnc(-c2ccc(Br)cc2)s1 | 16 (≈ 33.2 µM)
64 | CCCC[C@H](CN(O)C=O)C(=O)N1CCC[C@H]1c1nnc(-c2ccc(F)cc2C(F)(F)F)s1 | > 16
65 | CCCC[C@H](CN(O)C=O)C(=O)N1CCC[C@H]1c1nnc(-c2ccc(-c3ccccc3)cc2)s1 | > 16
66 | CCCC[C@H](CN(O)C=O)C(=O)N1CCC[C@H]1c1nnc(-c2ccc(C#N)cc2F)s1 | 8 (≈ 18 µM)
